Several values for one entry are separate records, joined by “and”; a condition that tells them apart may be missing. Identical values can stand only once. Toxic doses and inconclusive results are not listed.
Tested on: BDF1 mice, intracerebral L1210 leukemia, survival T/C
Test: NCI In Vivo Anticancer Drug Screen. Data for tumor model L1210 Leukemia (intracerebral) in B6D2F1 (BDF1) mice
Conditions: endpoint: mean survival time, higher = longer survival
How it was run: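 Antitumour effect is judged in mice with transplanted tumour by comparing survival of treated (T) against vehicle-dosed (C) groups as T/C.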

[1] = dose: 67.0 mg/kg/injection, schedule: Q01DX001 (ip), vehicle: carboxymethylcellulose (CMC)
[2] = dose: 20.0 mg/kg/injection, schedule: Q01DX001 (ip), vehicle: saline with Tween-80
[3] = dose: 30.0 mg/kg/injection, schedule: Q01DX001 (ip), vehicle: saline with Tween-80
[4] = dose: 44.0 mg/kg/injection, schedule: Q01DX001 (ip), vehicle: saline with Tween-80
[5] = dose: 24.0 mg/kg/injection, schedule: Q01DX001 (ip), vehicle: other
[6] = dose: 54.0 mg/kg/injection, schedule: Q01DX001 (ip), vehicle: other
[7] = dose: 1.5 mg/kg/injection, schedule: Q01DX001 (ip), vehicle: carboxymethylcellulose (CMC)

With `COc1ccc(NC(=O)N(C)N=O)cc1` as the compound, how does the T/C [1] read?
The T/C was 94 % of control.

What about the T/C (dose: 100.0 mg/kg/injection, schedule: Q01DX001 (ip), vehicle: carboxymethylcellulose (CMC)) of the same compound?
The T/C was 90 % of control.

`C[n+]1ccc(Nc2ccc(NC(=O)c3ccc(Nc4cc[n+](C)c5ccc(N)cc45)cc3)cc2)cc1` was tested. Which T/C (dose: 0.5 mg/kg/injection, schedule: Q01DX009 (ip), vehicle: Klucel (hydroxypropylcellulose) (HPC)) did it give?
The T/C was 93 % of control.

What about the T/C (dose: 1.0 mg/kg/injection, schedule: Q01DX009 (ip), vehicle: Klucel (hydroxypropylcellulose) (HPC)) of the same compound?
The T/C was 106 % of control.

And the T/C (dose: 2.0 mg/kg/injection, schedule: Q01DX009 (ip), vehicle: Klucel (hydroxypropylcellulose) (HPC))?
Its T/C is 103 % of control.

And the T/C (dose: 4.0 mg/kg/injection, schedule: Q01DX009 (ip), vehicle: Klucel (hydroxypropylcellulose) (HPC))?
Its T/C is 110 % of control.

And the T/C (dose: 8.0 mg/kg/injection, schedule: Q01DX009 (ip), vehicle: Klucel (hydroxypropylcellulose) (HPC))?
The T/C was 122 % of control.

`O=NN(CCCl)C(=O)N[C@@H]1CCC[C@@H](O)C1` was tested. Which T/C (dose: 8.0 mg/kg/injection, schedule: Q01DX001 (ip), vehicle: saline with Tween-80) did it give?
The T/C was 118 % of control.

What about the T/C [2] of the same compound?
The T/C was 361 % of control.

And the T/C [3]?
The T/C was 413 % of control.

What about the T/C [4] of the same compound?
The T/C was 260 % of control.

What does the source list for `CN(C)C(=O)c1ccc(NC(=O)N(CCCl)N=O)cc1`?
T/C (dose: 8.0 mg/kg/injection, schedule: Q01DX001 (ip), vehicle: other): 110 % of control; T/C [5]: 121 % of control

`CCOCCN1CCN(CCCN2c3ccccc3Sc3ccc(C(F)(F)F)cc32)CC1` was tested. Which T/C (dose: 0.78 mg/kg/injection, schedule: Q01DX009 (ip), vehicle: water) did it give?
Its T/C is 106 % of control.

What about the T/C (dose: 1.56 mg/kg/injection, schedule: Q01DX009 (ip), vehicle: water) of the same compound?
The T/C was 103 % of control.

And the T/C (dose: 25.0 mg/kg/injection, schedule: Q04DX003 (ip), vehicle: water)?
The T/C was 106 % of control.

For `O=NN(CCF)C(=O)NC1CCCCC1`, which T/C (dose: 13.0 mg/kg/injection, schedule: Q01DX001 (ip), vehicle: carboxymethylcellulose (CMC)) is on record?
The T/C was 120 % of control.

What about the T/C (dose: 13.5 mg/kg/injection, schedule: Q01DX001 (ip), vehicle: other) of the same compound?
The T/C was 166 % of control and 214 % of control and 233 % of control.

What about the T/C (dose: 13.5 mg/kg/injection, schedule: Q01DX001 (oral), vehicle: other) of the same compound?
The T/C was 253 % of control and 270 % of control and 284 % of control.

What about the T/C (dose: 20.0 mg/kg/injection, schedule: Q01DX001 (ip), vehicle: carboxymethylcellulose (CMC)) of the same compound?
The T/C was 180 % of control.

What about the T/C (dose: 27.0 mg/kg/injection, schedule: Q01DX001 (ip), vehicle: other) of the same compound?
Its T/C is 156 % of control and 373 % of control and 379 % of control.

What about the T/C (dose: 27.0 mg/kg/injection, schedule: Q01DX001 (oral), vehicle: other) of the same compound?
Its T/C is 325 % of control and 352 % of control and 462 % of control.

And the T/C (dose: 30.0 mg/kg/injection, schedule: Q01DX001 (ip), vehicle: carboxymethylcellulose (CMC))?
Its T/C is 290 % of control and 322 % of control.

And the T/C (dose: 45.0 mg/kg/injection, schedule: Q01DX001 (ip), vehicle: carboxymethylcellulose (CMC))?
The T/C was 293 % of control and 337 % of control.

What about the T/C [6] of the same compound?
Its T/C is 190 % of control and 322 % of control and 367 % of control.

What about the T/C (dose: 54.0 mg/kg/injection, schedule: Q01DX001 (oral), vehicle: other) of the same compound?
The T/C was 203 % of control and 379 % of control.

What about the T/C [1] of the same compound?
Its T/C is 275 % of control.

Which T/C (dose: 13.0 mg/kg/injection, schedule: Q01DX001 (ip), vehicle: saline with Tween-80) does the source give for `O=NN(CCCl)C(=O)NC1CCC(O)CC1` (stereo not drawn) here?
The T/C was 152 % of control.

What about the T/C (dose: 13.0 mg/kg/injection, schedule: Q01DX001 (ip), vehicle: saline) of the same compound?
The T/C was 177 % of control.

And the T/C [2]?
The T/C was 418 % of control.

What about the T/C (dose: 26.0 mg/kg/injection, schedule: Q01DX001 (ip), vehicle: saline) of the same compound?
The T/C was 448 % of control.

What about the T/C [3] of the same compound?
The T/C was 479 % of control.

What about the T/C (dose: 40.0 mg/kg/injection, schedule: Q01DX001 (ip), vehicle: saline) of the same compound?
The T/C was 479 % of control.

And the T/C [4]?
Its T/C is 286 % of control.

And the T/C (dose: 60.0 mg/kg/injection, schedule: Q01DX001 (ip), vehicle: saline)?
Its T/C is 322 % of control.

And the T/C (dose: 67.0 mg/kg/injection, schedule: Q01DX001 (ip), vehicle: saline with Tween-80)?
Its T/C is 96 % of control.

And the T/C (dose: 90.0 mg/kg/injection, schedule: Q01DX001 (ip), vehicle: saline)?
The T/C was 114 % of control.

`CC(=O)OC1CCC(NC(=O)N(CCCl)N=O)CC1` (stereo not drawn) was tested. Which T/C [5] did it give?
The T/C was 364 % of control.

And the T/C (dose: 36.0 mg/kg/injection, schedule: Q01DX001 (ip), vehicle: other)?
Its T/C is 500 % of control.

What about the T/C [6] of the same compound?
Its T/C is 423 % of control.

How did the T/C (dose: 25.0 mg/kg/injection, schedule: Q01DX009 (ip), vehicle: Klucel (hydroxypropylcellulose) (HPC)) turn out when `O=C1C(NC(=O)C2CCCCC2)=C(N2CC2)C(=O)C(NC(=O)C2CCCCC2)=C1N1CC1` was run?
The T/C was 111 % of control.

And the T/C (dose: 50.0 mg/kg/injection, schedule: Q01DX009 (ip), vehicle: Klucel (hydroxypropylcellulose) (HPC))?
Its T/C is 101 % of control and 102 % of control and 241 % of control.

And the T/C (dose: 50.0 mg/kg/injection, schedule: Q01DX Z (ip), vehicle: carboxymethylcellulose (CMC))?
The T/C was 104 % of control.

What about the T/C (dose: 100.0 mg/kg/injection, schedule: Q01DX Z (ip), vehicle: carboxymethylcellulose (CMC)) of the same compound?
The T/C was 103 % of control.

What about the T/C (dose: 200.0 mg/kg/injection, schedule: Q01DX009 (ip), vehicle: Klucel (hydroxypropylcellulose) (HPC)) of the same compound?
The T/C was 105 % of control and 115 % of control and 119 % of control.

What about the T/C (dose: 200.0 mg/kg/injection, schedule: Q01DX Z (ip), vehicle: carboxymethylcellulose (CMC)) of the same compound?
Its T/C is 103 % of control.

And the T/C (dose: 400.0 mg/kg/injection, schedule: Q01DX009 (ip), vehicle: Klucel (hydroxypropylcellulose) (HPC))?
The T/C was 119 % of control and 97 % of control.

And the T/C (dose: 400.0 mg/kg/injection, schedule: Q01DX Z (ip), vehicle: carboxymethylcellulose (CMC))?
Its T/C is 116 % of control.

And the T/C (dose: 440.0 mg/kg/injection, schedule: Q01DX001 (ip), vehicle: carboxymethylcellulose (CMC))?
Its T/C is 96 % of control and 98 % of control.

What about the T/C (dose: 670.0 mg/kg/injection, schedule: Q01DX001 (ip), vehicle: carboxymethylcellulose (CMC)) of the same compound?
Its T/C is 104 % of control and 97 % of control.

What about the T/C (dose: 800.0 mg/kg/injection, schedule: Q01DX009 (ip), vehicle: Klucel (hydroxypropylcellulose) (HPC)) of the same compound?
The T/C was 104 % of control.

And the T/C (dose: 1000.0 mg/kg/injection, schedule: Q01DX001 (ip), vehicle: carboxymethylcellulose (CMC))?
The T/C was 102 % of control and 103 % of control.

How did the T/C (dose: 1.0 mg/kg/injection, schedule: Q01DX001 (ip), vehicle: carboxymethylcellulose (CMC)) turn out when `O=NN(CCCl)C(=O)Nc1cccc2cccnc12` was run?
The T/C was 101 % of control.

And the T/C [7]?
Its T/C is 103 % of control.

What about the T/C (dose: 2.6 mg/kg/injection, schedule: Q01DX001 (ip), vehicle: carboxymethylcellulose (CMC)) of the same compound?
Its T/C is 104 % of control.

What about the T/C (dose: 4.0 mg/kg/injection, schedule: Q01DX001 (ip), vehicle: carboxymethylcellulose (CMC)) of the same compound?
Its T/C is 105 % of control.

And the T/C (dose: 6.0 mg/kg/injection, schedule: Q01DX001 (ip), vehicle: carboxymethylcellulose (CMC))?
The T/C was 101 % of control.

What about the T/C (dose: 9.0 mg/kg/injection, schedule: Q01DX001 (ip), vehicle: carboxymethylcellulose (CMC)) of the same compound?
Its T/C is 102 % of control.

What about the T/C (dose: 12.0 mg/kg/injection, schedule: Q01DX001 (ip), vehicle: carboxymethylcellulose (CMC)) of the same compound?
Its T/C is 98 % of control.

What about the T/C (dose: 18.0 mg/kg/injection, schedule: Q01DX001 (ip), vehicle: carboxymethylcellulose (CMC)) of the same compound?
The T/C was 98 % of control.

Which T/C (dose: 0.75 mg/kg/injection, schedule: Q01DX015 (ip), vehicle: carboxymethylcellulose (CMC)) does the source give for `O=c1[nH]cc(N(CCCl)CCCl)c(=O)[nH]1` here?
The T/C was 114 % of control.

And the T/C (dose: 1.1 mg/kg/injection, schedule: Q01DX015 (ip), vehicle: carboxymethylcellulose (CMC))?
The T/C was 123 % of control.

What about the T/C [7] of the same compound?
The T/C was 106 % of control.

What about the T/C (dose: 2.4 mg/kg/injection, schedule: Q01DX001 (ip), vehicle: carboxymethylcellulose (CMC)) of the same compound?
The T/C was 111 % of control.

And the T/C (dose: 3.6 mg/kg/injection, schedule: Q01DX001 (ip), vehicle: carboxymethylcellulose (CMC))?
Its T/C is 102 % of control.

`CCNC(=O)N(CC)N=O` was tested. Which T/C (dose: 222.0 mg/kg/injection, schedule: Q01DX001 (ip), vehicle: saline) did it give?
Its T/C is 100 % of control.

And the T/C (dose: 333.0 mg/kg/injection, schedule: Q01DX001 (ip), vehicle: saline)?
The T/C was 110 % of control.

And the T/C (dose: 500.0 mg/kg/injection, schedule: Q01DX001 (ip), vehicle: saline)?
The T/C was 123 % of control.

From PubChem BioAssay AID252 (DTP/NCI, 2004)
